The text below walks through data of patent US8349880B2, “Bicyclic compounds for the reduction of beta-amyloid production” (Bristol-Myers Squibb Company, priority 2009, dated 2013).

The test relates to Aβ1-42 production. Nature of the test: Cellular assay for inhibition of Aβ1-42 production (H4 APP751 SWE clone 8.20). The format is cell-based. The conditions noted are these: 19 h, H4 APP751 SWE clone 8.20 cells, 19 h incubation. The gist of the method:
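Aβ42 level read with antibodies 565, against the Aβ42 neoepitope, and N-terminal 26D6, incubated overnight at 4° C, after exposure of H4 APP751 SWE clone 8.20 cells to compound for 19 h at 37° C. Medium was DMEM plus 0.0125% BSA, 1.5×10^4 cells/well. IC50 values come from curve fitting.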

Setting [1] is: read-out: Activity Rating (Aβ42 cellular IC50, given as a number).
The mark [2] stands for this setting: read-out: Activity Rating (based on Aβ42 cellular IC50 values).

The IC50 is the concentration that gives 50% inhibition.

Each structure is given as a SMILES string. Like-named read-outs stand apart in the source and are kept apart here.

Consider `COc1cc(Nc2nc3n(n2)CCCC[C@H]3c2ccc(OCC(F)(F)F)cc2)ccc1-n1cnc(Cl)c1` (single isomer, unassigned) [Example 106], for which, under setting [1], the half-inhibitory concentration (IC50) was determined as 0.005 µM.

Consider `COc1cc(Nc2nc3n(n2)CCCC[C@@H]3c2ccc(F)cc2F)ccc1-n1cnc(Cl)c1` (single isomer, unassigned) [Example 37], for which the 50% inhibitory concentration (IC50) under setting [2] is less than 0.01 µM.

Take `COc1cc(Nc2nc3n(n2)CCCC[C@@H]3c2ccc(OCC(F)(F)F)cc2)c(F)cc1-n1cnc(C)n1` (single isomer, unassigned) [Example 118]: the IC50 under setting [1] worked out at 0.107 µM.

`COc1cc(Nc2nc3n(n2)CCCCC3n2cc(Cl)cn2)ccc1-n1cnc(Cl)c1` (stereo not drawn) [Example 42, N-(4-(4-chloro-1H-imidazol-1-yl)-3-methoxyphenyl)-9-(4-chloro-1H-pyrazol-1-yl)-6,7,8,9-tetrahydro-5H-[1,2,4]triazolo[1,5-a]azepin-2-amine 2,2,2-trifluoroacetate]: the IC50 under setting [2] lay within 0.01 to 0.1 µM.

With `COc1cc(Nc2nc3n(n2)CCCC[C@@H]3c2ccc(OCC(F)(F)F)cc2)ccc1-n1cnc(Cl)c1` (single isomer, unassigned) [Example 107], the IC50 under setting [2] was 0.01 to 0.1 µM.

In the case of `CCOc1ccc(C2CCCCn3nc(Nc4ccc(-n5cnc(Cl)c5)c(OC)c4)nc32)cc1` (stereo not drawn) [Example 131, N-(4-(4-chloro-1H-imidazol-1-yl)-3-methoxyphenyl)-9-(4-ethoxyphenyl)-6,7,8,9-tetrahydro-5H-[1,2,4]triazolo[1,5-a]azepin-2-amine 2,2,2-trifluoroacetate], the IC50 under setting [2] is 0.01 to 0.1 µM.

Take `COc1cc(Nc2nc3n(n2)CC=CCC3c2ccc(F)cc2)ccc1-n1cnc(C)n1` (stereo not drawn) [Example 4, (Z)-9-(4-fluorophenyl)-N-(3-methoxy-4-(3-methyl-1H-1,2,4-triazol-1-yl)phenyl)-8,9-dihydro-5H-[1,2,4]triazolo[1,5-a]azepin-2-amine]: the IC50 under setting [2] lay within 0.01 to 0.1 µM.

Take `COc1cc(Nc2nc3n(n2)CCCCC3c2ccc(F)cc2F)ccc1-n1cnc(Cl)c1` (stereo not drawn) [Example 35, N-(4-(4-chloro-1H-imidazol-1-yl)-3-methoxyphenyl)-9-(2,4-difluorophenyl)-6,7,8,9-tetrahydro-5H-[1,2,4]triazolo[1,5-a]azepin-2-amine 2,2,2-trifluoroacetate]: the 50% inhibitory concentration (IC50) under setting [2] is less than 0.01 µM.

Regarding `COc1cc(Nc2nc3n(n2)CCCC[C@@H]3c2ccc(OCC(F)F)cc2)ccc1-n1cnc(Cl)c1` (single isomer, unassigned) [Example 163], the 50% inhibitory concentration (IC50) under setting [2] was in the range of 0.01 to 0.1 µM.

Turning to `Cc1ncn(-c2ccc(Nc3nc4n(n3)CCCCC4c3ccc(OC(F)(F)F)c(F)c3)cc2F)n1` (stereo not drawn) [Example 164, N-(3-fluoro-4-(3-methyl-1H-1,2,4-triazol-1-yl)phenyl)-9-(3-fluoro-4-(trifluoromethoxy)phenyl)-6,7,8,9-tetrahydro-5H-[1,2,4]triazolo[1,5-a]azepin-2-amine], the IC50 under setting [2] was less than 0.01 µM.

As for `COc1cc(Nc2nc3n(n2)C[C@H](O)CC[C@@H]3c2ccc(F)cc2)ccc1-n1cnc(Cl)c1` (relative stereo) [Example 65, rel-(6R,9R)-2-(4-(4-chloro-1H-imidazol-1-yl)-3-methoxyphenylamino)-9-(4-fluorophenyl)-6,7,8,9-tetrahydro-5H-[1,2,4]triazolo[1,5-a]azepin-6-ol 2,2,2-trifluoroacetate], the IC50 under setting [2] is less than 0.01 µM.

As for `C=C1CCn2nc(Nc3ccc(-n4cnc(Cl)c4)c(OC)c3)nc2C(c2ccc(F)cc2)C1` (stereo not drawn) [Example 133, N-(4-(4-chloro-1H-imidazol-1-yl)-3-methoxyphenyl)-9-(4-fluorophenyl)-7-methylene-6,7,8,9-tetrahydro-5H-[1,2,4]triazolo[1,5-a]azepin-2-amine 2,2,2-trifluoroacetate], the IC50 under setting [2] lay within 0.01 to 0.1 µM.

For `COc1cc(Nc2nc3c(s2)CCCC3(NCc2ccc(Cl)cc2)c2ccccc2)ccc1-n1cnc(Cl)c1` (stereo not drawn) [Example 83, N2-(4-(4-chloro-1H-imidazol-1-yl)-3-methoxyphenyl)-N4-(4-chlorobenzyl)-4-phenyl-4,5,6,7-tetrahydrobenzo[d]thiazole-2,4-diamine], under setting [2], the IC50 is 0.1 to 1 µM.

Turning to `COc1cc(Nc2nc3n(n2)CCCC[C@@H]3c2cc(F)cc(F)c2)ccc1-n1cnc(Cl)c1` (single isomer, unassigned) [Example 40], the half-inhibitory concentration (IC50) under setting [2] was in the range of 0.01 to 0.1 µM.

For the compound `COc1cc(Nc2nc3c(s2)CC(O)CC3c2ccc(F)cc2)ccc1-n1cnc(Cl)c1` (stereo not drawn) [Example 76, 2-(4-(4-chloro-1H-imidazol-1-yl)-3-methoxyphenylamino)-4-(4-fluorophenyl)-4,5,6,7-tetrahydrobenzo[d]thiazol-6-ol], the IC50 under setting [2] was less than 0.01 µM.

In the case of `COc1cc(Nc2nc3n(n2)CCCCC3c2ccc(-n3cc(C)cn3)cc2)ccc1-n1cnc(Cl)c1` (stereo not drawn) [Example 174, N-(4-(4-chloro-1H-imidazol-1-yl)-3-methoxyphenyl)-9-(4-(4-methyl-1H-pyrazol-1-yl)phenyl)-6,7,8,9-tetrahydro-5H-[1,2,4]triazolo[1,5-a]azepin-2-amine 2,2,2-trifluoroacetate], the IC50 under setting [2] is less than 0.01 µM.

Turning to `Cc1ncnn1-c1ccc(Nc2nc3n(n2)CCCC[C@@H]3c2ccc(OCC(F)(F)F)cc2)cc1F` (single isomer, unassigned) [Example 112], the IC50 under setting [2] was in the range of 0.01 to 0.1 µM.

With `Cc1ncnn1-c1ccc(Nc2nc3n(n2)CCC[C@H]3c2ccc(F)cc2)cc1F` (single isomer, unassigned) [Example 14], the half-inhibitory concentration (IC50) under setting [1] came out at 0.053 µM.

For the compound `COc1cc(Nc2nc3n(n2)CCCCC3c2ccc(-n3cncn3)cc2)ccc1-n1cnc(Cl)c1` (stereo not drawn) [Example 172, 9-(4-(1H-1,2,4-triazol-1-yl)phenyl)-N-(4-(4-chloro-1H-imidazol-1-yl)-3-methoxyphenyl)-6,7,8,9-tetrahydro-5H-[1,2,4]triazolo[1,5-a]azepin-2-amine 2,2,2-trifluoroacetate], the IC50 under setting [1] worked out at 0.064 µM.

As for `Cc1ncn(-c2ccc(Nc3nc4n(n3)CCCC[C@@H]4c3ccc(F)cc3)cc2F)n1` (single isomer, unassigned) [Example 27], the IC50 under setting [2] lay in the range of 0.01 to 0.1 µM.

Regarding `Cc1ncn(-c2ccc(Nc3nc4n(n3)CCCC4c3ccc(OC(F)(F)F)cc3)cc2F)n1` (stereo not drawn) [Example 122, N-(3-fluoro-4-(3-methyl-1H-1,2,4-triazol-1-yl)phenyl)-8-(4-(trifluoromethoxy)phenyl)-5,6,7,8-tetrahydro-[1,2,4]triazolo[1,5-a]pyridin-2-amine 2,2,2-trifluoroacetate], the IC50 under setting [2] lay within 0.01 to 0.1 µM.

Take `Cc1ncnn1-c1ccc(Nc2nc3n(n2)CC[C@](C)(O)C[C@@H]3c2ccc(F)cc2)cc1F` (relative stereo) [Example 150, rel-(7R,9R)-2-(3-fluoro-4-(5-methyl-1H-1,2,4-triazol-1-yl)phenylamino)-9-(4-fluorophenyl)-7-methyl-6,7,8,9-tetrahydro-5H-[1,2,4]triazolo[1,5-a]azepin-7-ol 2,2,2-trifluoroacetate]: under setting [2], the 50% inhibitory concentration (IC50) fell in the range of 0.01 to 0.1 µM.

As to `COc1cc(Nc2nc3n(n2)CCCCC3c2ccc(F)c(F)c2)ccc1-n1cnc(Cl)c1` (stereo not drawn) [Example 22, N-(4-(4-chloro-1H-imidazol-1-yl)-3-methoxyphenyl)-9-(3,4-difluorophenyl)-6,7,8,9-tetrahydro-5H-[1,2,4]triazolo[1,5-a]azepin-2-amine 2,2,2-trifluoroacetate], the IC50 under setting [2] is less than 0.01 µM.

Turning to `COc1cc(Nc2nc3n(n2)CCCC[C@H]3c2cccc(F)c2)ccc1-n1cnc(Cl)c1` (single isomer, unassigned) [Example 45], under setting [2], the half-maximal inhibitory concentration (IC50) was less than 0.01 µM.

Regarding `COc1cc(Nc2nc3n(n2)CCCCC3c2ccc(OCC(F)F)cc2)ccc1-n1cnc(Cl)c1` (stereo not drawn) [Example 161, N-(4-(4-chloro-1H-imidazol-1-yl)-3-methoxyphenyl)-9-(4-(2,2-difluoroethoxy)phenyl)-6,7,8,9-tetrahydro-5H-[1,2,4]triazolo[1,5-a]azepin-2-amine], under setting [2], the IC50 fell in the range of 0.01 to 0.1 µM.

For the compound `COc1cc(Nc2nc3n(n2)CCCC[C@H]3c2ccccc2F)ccc1-n1cnc(Cl)c1` (single isomer, unassigned) [Example 58], the IC50 under setting [2] was less than 0.01 µM.

On to `COc1cc(Nc2nc3c(s2)CCCCC3c2ccc(F)cc2)ccc1-n1cnc(Cl)c1` (stereo not drawn) [Example 85, N-(4-(4-chloro-1H-imidazol-1-yl)-3-methoxyphenyl)-4-(4-fluorophenyl)-5,6,7,8-tetrahydro-4H-cyclohepta[d]thiazol-2-amine 2,2,2-trifluoroacetate], for which, under setting [2], the concentration for half-maximal inhibition (IC50) lay in the range of 0.01 to 0.1 µM.

Regarding `COc1cc(Nc2nc3n(n2)CCCCC3c2ccc(F)cc2)ccc1-n1cnc(Cl)c1` (stereo not drawn) [Example 16, N-(4-(4-Chloro-1H-imidazol-1-yl)-3-methoxyphenyl)-9-(4-fluorophenyl)-6,7,8,9-tetrahydro-5H-[1,2,4]triazolo[1,5-a]azepin-2-amine], the concentration for half-maximal inhibition (IC50) under setting [2] was less than 0.01 µM.

Regarding `COc1cc(Nc2nc3n(n2)CCCCC3c2ccc(-n3cccn3)cc2)ccc1-n1cnc(Cl)c1` (stereo not drawn) [Example 171, 9-(4-(1H-pyrazol-1-yl)phenyl)-N-(4-(4-chloro-1H-imidazol-1-yl)-3-methoxyphenyl)-6,7,8,9-tetrahydro-5H-[1,2,4]triazolo[1,5-a]azepin-2-amine 2,2,2-trifluoroacetate], the IC50 under setting [2] was 0.01 to 0.1 µM.

Consider `Cc1ncn(-c2ccc(Nc3nc4n(n3)CCC[C@H]4c3ccc(OC(F)(F)F)cc3)cc2F)n1` (single isomer, unassigned) [Example 123], for which the concentration for half-maximal inhibition (IC50) under setting [2] lay in the range of 0.1 to 1 µM.

As to `COc1cc(Nc2nc3n(n2)CCCC[C@H]3c2ccc(OC(C)C)cc2)ccc1-n1cnc(Cl)c1` (single isomer, unassigned) [Example 103], the IC50 under setting [2] is less than 0.01 µM.

As for `COc1cc(Nc2nc3n(n2)CCCCC3c2ccc(Cl)cc2)ccc1-n1cnc(Cl)c1` (stereo not drawn) [Example 32, N-(4-(4-chloro-1H-imidazol-1-yl)-3-methoxyphenyl)-9-(4-chlorophenyl)-6,7,8,9-tetrahydro-5H-[1,2,4]triazolo[1,5-a]azepin-2-amine 2,2,2-trifluoroacetate], the concentration for half-maximal inhibition (IC50) under setting [2] is less than 0.01 µM.

On to `Cc1ncnn1-c1ccc(Nc2nc3n(n2)CCC[C@@H]3c2ccc(F)cc2)cc1F` (single isomer, unassigned) [Example 15], for which the 50% inhibitory concentration (IC50) under setting [2] lay in the range of 0.1 to 1 µM.
